Read-outs that look alike come from different tables or passages of the source.
Assays:
[1] = Solubility in aqueous solutions
From the text: Therefore, two different approaches for modifying the sPPp conjugate were investigated to improve its in vivo targetability.

[2] = tested on: A-431 human epidermoid carcinoma tumor xenografts; test: Time-coursed fluorescence imaging in tumor xenograft model with ROI analysis; type: in vivo, athymic nude mice
Description: ROI measurements were done using ImageJ software (Rasband 1997-2007). For FIGS. 2A and 2B, image exposure times were 0.65 seconds, whereas image exposure times in FIG. 2C were 4 seconds in order to compensate for the smaller injected dosage of PPa content.
To assess the in vivo delivery characteristics of sPPp conjugate formulations, time-coursed fluorescence imaging studies were performed in a tumor xenograft model grown in athymic nude mice. Tumor xenografts were grown subcutaneously in the left upper chest region using the A-431 human epidermoid carcinoma cell line (American Type Culture Collection, Manassas, Va.), which is ideal for EGFR-targeting studies given that these cells overexpress ˜1×10^6-2.6×10^6 EGFR/cell (Haigler, et al. (1978) Proc. Natl. Acad. Sci. USA 75:3317-21; Mendelsohn (1997) Clin. Cancer Res. 3:2703-7). When tumor sizes reached greater than ˜100 mm^3, mice were imaged pre-injection, and then free PPa or sPPp conjugate formulations that had been sterile filtered through a 0.2 micron membrane were injected via tail vein or retro-orbitally at dosages ranging from ˜10 to ˜80 nmoles PPa content per mouse (mice weighed ˜20 g) in a single bolus volume of approximately 200 microliters. A series of post-injection images were then taken over a period of time until mouse fluorescence levels approached pre-injection baseline levels. Images were acquired of the ventral surface of the animals using a custom built surface-weighted fluorescence imager with a 670 nm laser for excitation and a 685 nm long-pass emission filter for detection (Pogue, et al. (2004) Technol. Cancer Res. Treat. 3:15-21). […]
As a quantitative measure of the tumor contrast generated by the surfactant-solubilized free PPa solution and the different sPPp conjugate formulations, region of interest (ROI) mean pixel values of the tumor area and control adjacent chest area were measured from the imaging data sets.

[3] = tested on: EGFR-overexpressing A-431 tumor xenograft; test: Tumor growth delay photodynamic therapy (PDT) studies, single and repeat treatment (Example 4, FIGS. 4 and 5); type: in vivo, athymic NCr nu/nu mice; details: single PDT, 60 nmole PPa content per 20 g, 100 J/cm^2 at ~16 hours post-injection
Description: All formulations were administered at a dosage equivalent to 60 nmole PPa content per 20 gram body weight in a 200 μl bolus injection via the tail vein (or via retro-orbital injection when tail vein injections were not feasible). A 670 nm diode laser light dose of 100 J/cm^2, delivered at ˜50 mW/cm^2, was given at ˜16 hours post-injection over an area covering the entire tumor surface as well as a 2 to 3 mm border extending beyond the edge of the tumor. The tumor model was the EGFR-overexpressing A-431 tumor xenograft grown in athymic NCr nu/nu mice (5-week old mice from the National Cancer Institute at Frederick, Md.). Data series were plotted so that the time at which each tumor reached ˜150 mm^3 corresponds to 0 days; i.e., the approximate time at which the PDT light dose was administered.
Control experiments were also performed, which included injecting mice with the sPPp formulations but not exposing them to light.

[4] = tested on: A-431 human tumor xenografts; test: Preliminary tumor growth delay studies after phototherapy (Example 3, FIG. 3); type: in vivo, mice
Description: Mice were implanted with A-431 tumor xenografts and were administered phototherapy when their tumor sizes reached approximately 150 mm^3. Tumors were then regularly measured to determine the time it took for the tumors to reach four times their initial treatment size. To allow for easier comparisons, tumor growth delay data sets have been aligned so that the 0-day time point corresponds to a tumor volume of 150 mm^3. Diamond, control mice (no PPa or sPPp conjugate; no light), lumped data set, n=6. Squares, mice treated with 60 nmoles surfactant-solubilized free PPa in 2% ethanol/1% TWEEN 80/PBS for a ˜16 hour incubation and treated with 100 J/(cm*cm) light, n=4. Triangles, mice treated with 60 nmoles partially PEG2(20 kDa)ylated (˜63 molar %) sPPp conjugate in PBS for a ˜16 hour incubation and treated with 500 J/(cm*cm) light, n=3.
Preliminary tumor growth delay studies comparing the in vivo phototherapeutic effects of the partially PEG2(20 kDa)ylated sPPp conjugate to the gold standard surfactant-solubilized free PPa solution are shown in FIG. 3. A-431 human tumor xenografts were grown in mice as previously described, and when tumors reached ˜150 mm^3, mice were injected via the tail vein or retro-orbitally with 60 to 80 nmoles PPa content in a bolus volume of approximately 200 microliters. Sixteen hours post-injection, the entire tumor surface along with a 1-2 mm margin of skin around the tumor edge was uniformly irradiated with the expanded beam of a 670 nm laser at an incident fluence rate of ˜50 mW/cm^2. Six mice that received no injections and no irradiations served as a control group. Tumor growth delays resulting from the tumoricidal effects of the phototherapeutic treatments were determined with respect to the control group. For control mice, it took roughly 8.1 days for tumors to quadruple in size from 150 mm^3 to 600 mm^3, and for mice treated with 60 nmoles surfactant-solubilized free PPa and 100 J/cm^2 light, it took only slightly longer, 12.6±2.4 days (i.e., a tumor growth delay of ˜4.5 days compared to the control group). […]

[5] = 60 nmoles, 100 J/cm^2 light, 16 hours post-injection

Row | Molecule | solubility in aqueous solutions [1] | peak tumor area to adjacent chest area mean pixel value ratio (tumor contrast) ([2]; 60 nmoles PPa in 2% ethanol/1% TWEEN 80/PBS, at ~16 hours post-injection, FIG. 2A) | clearance from the circulation ([2]; A-431 tumor-bearing mice, single bolus injection, fluorescence imaging) | tumor fluorescence at time of peak tumor contrast ([2]; FIG. 2) | delay in tumor growth compared to untreated control mice [3] | solubility in aqueous solutions ([1]; aqueous solutions) | time for tumors to quadruple in size from 150 mm^3 to 600 mm^3 [4, 5] | tumor growth delay compared to the control group [4, 5] | lethality ([4]; irradiations performed immediately after injection)
1 | C=CC1=C(C)c2cc3[nH]c(c4c5nc(cc6[nH]c(cc1n2)c(C)c6CC)C(C)=C5C(=O)C4)C(CCC(=O)NC(CC(=O)O)C(=O)NCCCCC(N)C(=O)NCCOCCOCCOCCOCCOCCOCCOCCOCCOCCOCCOCCOCCC(=O)NCCOCCOCCOCCOCCOCCOCCOCCOCCOCCOCCOCCOCCC(N)=O)C3C (stereo not drawn) [sPPp] | highly soluble and readily dissolved in aqueous solutions | – | – | – | – | – | – | – | –
2 | pyropheophorbide-a [free PPa] | – | ~1.5 | cleared very rapidly from the circulation via the hepatobiliary system | already approaching pre-injection fluorescence levels | no significant delay in tumor growth | required potentially harmful solubilizers to prevent the formation of large insoluble aggregates | 12.6 ± 2.4 days | ~4.5 days | very high incidence of lethality
